For data set [1] the following is noted: cited from earlier work.
For data set [2] the following is noted: cited from earlier work. The source holds these as a separate data set.
For data set [3] the following is noted: cited from earlier work. The source holds these as a separate data set.
For data set [4] the following is noted: cited from earlier work. This is another data set of the same source.
For data set [5] the following is noted: cited from earlier work. The source holds these as a separate data set.
The conditions of data set [6]: cited from earlier work. The source holds these as a separate data set.
For data set [7] the following is noted: cited from earlier work. This is another data set of the same source.
For data set [8] the following is noted: cited from earlier work. The source holds these as a separate data set.
Data set [9] has as its system aromatic amino acid synthesis. Particulars: cited from earlier work.
For data set [10] the following is noted: cited from earlier work. The source holds these as a separate data set.
For data set [11] the following is noted: cited from earlier work. This is another data set of the same source.
For data set [12] the following is noted: equimolar EDTA, neutral pH. The source says:
If instead of EDTA, complexing agents are used which form complexes of two or several ligands of the complexing agent per metal atom, then a correspondingly multiple (double, multiple) molar amount of the relevant ligands must be used in order to complex the trace elements in the solution.

In the case of `O=C(O)c1ccccc1O` [(C6H4)(OH)(COOH), Salicylic acid], the “complexing of Mn^2+ in words” value in [1] is recorded as “very good”. For the same compound, the “complexing of Co^2+ in words” value in data set [2] was “very good”. Besides, the “complexing of Ni^2+ in words” value in data set [3] was “very good”. Further, the “complexing of Cu^2+ in words” value in data set [4] is “very good”. Besides, the “complexing of Fe^3+ in words” value in [5] is on record as “excellent”. In addition, in data set [6], the “complexing of Zn^2+ in words” value is listed as “good”.

In the case of `O=C(O)C(=O)O` [(COOH)2, Oxalic acid], the “complexing of Co^2+ in words” value in data set [2] is on record as “moderate”. In data set [3], the “complexing of Ni^2+ in words” value is reported as “moderate”. Further, the “complexing of Ca^2+ in words” value in data set [7] was “precipitates”. Further, in data set [4], the “complexing of Cu^2+ in words” value is reported as “moderate”. Further, the “complexing of Fe^3+ in words” value in data set [5] is given as “good”. In addition, the “complexing of Zn^2+ in words” value in data set [6] is “moderate”. For the same compound, in data set [8], the “complexing of Fe^2+ in words” value is reported as “moderate”.

`O=CC(=O)O` [C2H2O3, oxoethanoic acid]: the “complexing of Co^2+ in words” value in data set [2] was “somewhat more poorly”. Besides, the “complexing of Ni^2+ in words” value in data set [3] is “somewhat more poorly”. Further, in data set [4], the “complexing of Cu^2+ in words” value is “in small amounts”. Besides, the “complexing of Fe^2+ in words” value in data set [8] is given as “somewhat more poorly”.

In the case of `O=C(O)CNCP(=O)(O)O` [C3H8O5NP, n-phosphomethylglicine], the “effect on aromatic amino acid synthesis” value in data set [9] is reported as “inhibits the aromatic amino acid synthesis”.

As to `N[C@@H](CC(=O)O)C(=O)O` [C4H7O4N, Aspartic acid], the “complexing of Ni^2+ in words” value in data set [3] is on record as “very well”. Moreover, the “complexing of Cu^2+ in words” value in data set [4] was “very well”. Also, the “complexing of Zn^2+ in words” value in data set [6] is “very well”. In addition, the “complexing of Al^3+ in words” value in [10] is given as “only moderately”.

Take `N[C@@H](Cc1c[nH]cn1)C(=O)O` [C6H9O2N3, Histidine]: the “complexing of Mn^2+ in words” value in data set [1] is listed as “good”. Further, the “complexing of Co^2+ in words” value in [2] is reported as “very good”. Moreover, in [3], the “complexing of Ni^2+ in words” value is listed as “very good”. The “complexing of Ca^2+ in words” value in data set [7] is reported as “poor”. In addition, the “complexing of Cu^2+ in words” value in [4] is on record as “very good”. In data set [6], the “complexing of Zn^2+ in words” value is listed as “very good”. The “complexing of Al^3+ in words” value in data set [10] was “good”.

On to `O=C[C@H](O)[C@@H](O)[C@@H](O)[C@H](O)C(=O)O` [C6H10O7, galacturonic acid], for which the “complexing of Fe^2+ in words” value in [8] is “very well”.

For the compound `O=C(O)CN(CCN(CC(=O)O)CC(=O)O)CC(=O)O` [C10H16O8N2, ethylenediaminetetraacetic acid], the “complexing of Mn^2+ in words” value in [1] is “very well”. In addition, in data set [11], the “complexing of Mg^2+ in words” value is “well”. Besides, the “precipitation in the presence of H2S” value in [12] is listed as “no precipitation”. The “complexing of Co^2+ in words” value in [2] is recorded as “very well”. Besides, in [3], the “complexing of Ni^2+ in words” value was “very well”. Also, the “complexing of Ca^2+ in words” value in data set [7] was “very well”. Moreover, the “complexing of Cu^2+ in words” value in data set [4] is recorded as “very well”. For the same compound, in data set [5], the “complexing of Fe^3+ in words” value is given as “extremely well”. The “complexing of Zn^2+ in words” value in [6] was “very well”. Also, in [8], the “complexing of Fe^2+ in words” value is “very well”.

Take `O=C(O)CS` [CH2(SH)COOH, mercaptoacetic acid (thio-glycol acid)]: the “complexing of Mn^2+ in words” value in [1] is on record as “good”. The “complexing of Co^2+ in words” value in data set [2] is “very good”. In addition, in data set [5], the “complexing of Fe^3+ in words” value is “excellent”. Further, the “complexing of Zn^2+ in words” value in [6] is listed as “excellent”. Besides, the “complexing of Fe^2+ in words” value in data set [8] is “very good”.

As to `CC(=O)CC(C)=O` [CH3(C═O)CH2(C═O)CH3, acetylacetone], in data set [1], the “complexing of Mn^2+ in words” value is given as “moderately well”. Also, the “complexing of Mg^2+ in words” value in data set [11] is reported as “moderately well”. The “complexing of Co^2+ in words” value in [2] is “moderately well”. Moreover, the “complexing of Ni^2+ in words” value in data set [3] is recorded as “well”. In addition, in [4], the “complexing of Cu^2+ in words” value is “well”. In data set [5], the “complexing of Fe^3+ in words” value was “extremely well”. The “complexing of Al^3+ in words” value in [10] is given as “extremely well”. The “complexing of Fe^2+ in words” value in data set [8] is on record as “moderately well”.

With `CC(=O)C(=O)O` [CH3(C═O)COOH, oxopropionic acid (pyruvic acid, pyruvate)], the “complexing of Co^2+ in words” value in [2] is given as “somewhat more poorly”. In [3], the “complexing of Ni^2+ in words” value was “somewhat more poorly”. Besides, the “complexing of Cu^2+ in words” value in data set [4] is “in small amounts”. Also, the “complexing of Fe^2+ in words” value in data set [8] was “somewhat more poorly”.

Take `CC(O)C(=O)O` (centres unmarked) [CH3CH(OH)COOH, 2-hydroxypropionic acid (lactic acid)]: the “complexing of Co^2+ in words” value in data set [2] is reported as “somewhat more poorly”. In addition, the “complexing of Ni^2+ in words” value in data set [3] was “somewhat more poorly”. Further, the “complexing of Cu^2+ in words” value in [4] is recorded as “in small amounts”. For the same compound, the “complexing of Fe^2+ in words” value in data set [8] is given as “somewhat more poorly”.

`O=C(O)CNCCNCC(=O)O` [EDDA, Ethylendiimine diacetic acid]: the “complexing of Mn^2+ in words” value in data set [1] was “well”. The “complexing of Co^2+ in words” value in data set [2] is “very well”. The “complexing of Zn^2+ in words” value in [6] is reported as “very well”.

For `OB(O)O` [H3O3B, boric acid], the “complexing of Mg^2+ in words” value in [11] is listed as “only with difficulty”. The “complexing of Ca^2+ in words” value in [7] was “only with difficulty”. For the same compound, the “complexing of Fe^3+ in words” value in data set [5] was “very good”.

For the compound `O=P(O)(O)OP(=O)(O)O` [H4P2O7, pyrophosphoric acid], in data set [1], the “complexing of Mn^2+ in words” value is on record as “very strongly”. Further, in data set [11], the “complexing of Mg^2+ in words” value is “very strongly”.

Take `O=C(O)CC(O)(CC(=O)O)C(=O)O` [HOOCCH2C(OH)(COOH)CH2COOH, Citric acid]: in data set [2], the “complexing of Co^2+ in words” value is recorded as “good”. The “complexing of Ni^2+ in words” value in [3] is listed as “good”. The “complexing of Cu^2+ in words” value in data set [4] is given as “good”. Also, in [5], the “complexing of Fe^3+ in words” value is on record as “good”.

Turning to `O=C(O)CC(O)C(=O)O` (centres unmarked) [HOOCCH2CH(OH)COOH, malic acid], the “complexing of Fe^3+ in words” value in data set [5] was “good”. For the same compound, in data set [10], the “complexing of Al^3+ in words” value is given as “good”.

Regarding meso-malic acid, the “complexing of Fe^3+ in words” value in [5] was “good”. Besides, in data set [10], the “complexing of Al^3+ in words” value was “good”.

(Values after patent US20120021476A1, “Trace Element Solution For Biogas Methods” (AGRAFERM TECHNOLOGIES AG, priority 2007, published 2012).)
